For the test, the target named is T1, p38 (Homo sapiens, UniProt Q16539).
T1 construct: made in house
Nature of the test: Protein Kinase Assay (33P incorporation from γ-[33P]ATP into GST-ATF-2 substrate). The format is biochemical. The note with it: for inhibition at 10 µM: compound at 10 μM. As to the method: Human non-activated p38 kinase (MW=43 kDa) was purified according to the protocol described herein. Chemicals were purchased from Calbiochem. Fluorescence characterizations were conducted using a Cary Eclipse (Varian Analytical Instruments, Walnut Creek, Calif.). Research-grade CM5 sensor chips and coupling reagents (N-ethyl-N′-dimethylaminopropylcarbodiimide (EDC) N-hydroxysuccinimide (NHS), and 1 M ethanolamine HCl, pH 8.5) were purchased from Biacore AB (Uppsala, Sweden). The biosensor analyses were conducted using a Biacore 3000 SPR instrument. The kinetic analyses were carried on a Molecular Devices spectrophotometer (Molecular Devices Corporation, CA, USA).
Protein Kinase Assay. The protein kinase activity of p38 was determined by measuring the incorporation of ^33P from γ-[^33P]ATP into the GST-ATF-2 substrate, amino acids 19-96 (Upstate, NY USA). […] Compounds were preincubated with 10 nM p38 for 20 min at 30° C.; the reactions were initiated by the addition of GST-ATF2 and ATP and incubated for 70 min at 30° C. before being stopped by the addition of 10 μL of 600 mM phosphoric acid. The phosphorylated substrate was captured on phosphocellulose 96-well plate (Millipore MAPHNOB 10), washed with 100 mM phosphoric acid, and counted in a BeckmenCoulter LS6500 liquid scintillation counter.

The mark [1] stands for this setting: compound at 3 μM (noted beside the value in Table 1), read-out: Protein Kinase (% Inhibition).
[2] abbreviates: compound at 3 μM, read-out: Protein Kinase (% Inhibition at 3 μM).

Where two headings read alike, the source gives them in different places.

T1 sequence (Q16539 whole entry): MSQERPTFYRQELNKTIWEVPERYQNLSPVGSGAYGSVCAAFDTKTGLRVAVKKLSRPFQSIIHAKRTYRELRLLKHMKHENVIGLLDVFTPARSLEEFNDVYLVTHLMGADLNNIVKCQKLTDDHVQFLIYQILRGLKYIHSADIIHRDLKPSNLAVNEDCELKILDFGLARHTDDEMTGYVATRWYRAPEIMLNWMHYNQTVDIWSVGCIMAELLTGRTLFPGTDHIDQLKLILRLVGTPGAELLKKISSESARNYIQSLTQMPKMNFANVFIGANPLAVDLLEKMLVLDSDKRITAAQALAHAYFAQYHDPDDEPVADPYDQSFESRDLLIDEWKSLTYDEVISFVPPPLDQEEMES

Take `CC(C)(C)c1cc(C(=O)N2CCS(=O)(=O)CC2)c(NC(=O)Nc2ccc(O)c3ccccc23)s1` [Example 34, 1-[5-tert-butyl-3-(1,1-dioxo-1λ^6-thiomorpholine-4-carbonyl)thiophen-2-yl]-3-(4-hydroxynaphthalen-1-yl)urea]: the inhibition – broadly, the percentage by which the read-out fell short of the control – at 10 µM was in the range of 76 to 100%.
Turning to `CC(C)(C)c1cc(C(=O)N2CCNC(=O)C2)c(NC(=O)Nc2cccc3ccccc23)s1` [Example 35, 1-[5-tert-butyl-3-(3-oxopiperazine-1-carbonyl)thiophen-2-yl]-3-naphthalen-1-ylurea], the inhibition at 10 µM lay in the range of 51 to 75%.
As for `CC(C)(C)c1cc(C(=O)N2CCNS(=O)(=O)CC2)c(NC(=O)Nc2cccc3ccccc23)s1` [Example 37, 1-[5-tert-butyl-3-(1,1-dioxo-1λ^6-[1,2,5]thiadiazepane-5-carbonyl)thiophen-2-yl]-3-naphthalen-1-ylurea], under setting [1], the inhibition at 3 µM is 51 to 75%.
As to `CC(C)(C)c1cc(C(=O)N2CCNS(=O)(=O)CC2)c(NC(=O)Nc2ccc3ccccc3c2)s1` [Example 38, 1-[5-tert-butyl-3-(1,1-dioxo-1λ^6-[1,2,5]thiadiazepane-5-carbonyl)thiophen-2-yl]-3-naphthalen-2-ylurea], the inhibition at 3 µM under setting [1] was in the range of 76 to 100%.
With `CC(C)(C)c1cc(C(=O)N2CCNS(=O)(=O)CC2)c(NC(=O)Nc2ccc(Cl)cc2)s1` [Example 39, 1-[5-tert-butyl-3-(1,1-dioxo-1λ^6-[1,2,5]thiadiazepane-5-carbonyl)thiophen-2-yl]-3-(4-chlorophenyl)urea], the inhibition at 3 µM under setting [1] was 76 to 100%.
On to `CC(C)(C)c1cc(C(=O)N2CC[S@SP2](=O)(=O)CC2)c(NC(=O)Nc2ccc(Br)c3ccccc23)s1` [Example 40, 1-(4-Bromonaphthalen-1-yl)-3-[5-tert-butyl-3-(1,1-dioxo-1λ^6-thiomorpholine-4-carbonyl)thiophen-2-yl]urea], for which, under setting [1], the inhibition at 3 µM was 76 to 100%.
In the case of `CC(C)(C)c1cc(C(=O)N2CCS(=O)(=O)CC2)c(NC(=O)Nc2ccc(Cl)c3ccccc23)s1` [Example 41, 1-[5-tert-butyl-3-(1,1-dioxo-1λ^6-thiomorpholine-4-carbonyl)thiophen-2-yl]-3-(4-chloronaphthalen-1-yl)urea], under setting [1], the inhibition at 3 µM is 76 to 100%.
As to `CC(C)(C)c1cc(C(=O)N2CCS(=O)(=O)CC2)c(NC(=O)Nc2cccc3nc[nH]c23)s1` [Example 42, 1-(3H-Benzimidazol-4-yl)-3-[5-tert-butyl-3-(1,1-dioxo-1λ^6-thiomorpholine-4-carbonyl)thiophen-2-yl]urea], the inhibition at 3 µM under setting [1] was 76 to 100%.
Turning to `CC(C)(C)c1cc(C(=O)N2CCS(=O)(=O)CC2)c(NC(=O)Nc2ccc(C#N)c3ccccc23)s1` [Example 43, 1-[5-tert-butyl-3-(1,1-dioxo-1λ^6-thiomorpholine-4-carbonyl)thiophen-2-yl]-3-(4-cyanonaphthalen-1-yl)urea], the inhibition at 3 µM under setting [1] is 76 to 100%.
For `CC(C)(C)c1cc(C(=O)N2CCNC(=O)CC2)c(NC(=O)Nc2ccc3ccccc3c2)s1` [Example 44, 1-[5-tert-butyl-3-(5-oxo[1,4]diazepane-1-carbonyl)thiophen-2-yl]-3-naphthalen-2-ylurea], the inhibition at 10 µM lay in the range of 76 to 100%.
Regarding `CC(C)(C)c1cc(C(=O)NCCS(C)(=O)=O)c(NC(=O)Nc2cccc3ccccc23)s1` [Example 45, 1-(3-(2-(Methylsulfonyl)ethylcarbamoyl)-5-tert-butylthiophen-2-yl)-3-(naphthalen-1-yl)urea], the inhibition at 3 µM under setting [2] lay in the range of 76 to 100%.
Consider `CC(C)(C)c1cc(C(=O)N2CCNC(=O)CC2)c(NC(=O)Nc2ccc(Cl)cc2)s1` [Example 46, 1-[5-tert-butyl-3-(5-oxo-[1,4]diazepane-1-carbonyl)thiophen-2-yl]-3-(4-chloro-phenyl)urea], for which the inhibition at 3 µM under setting [2] was 76 to 100%.
Turning to `CC(C)(C)c1cc(C(=O)N2CCNC(=O)C2)c(NC(=O)Nc2ccc(Cl)cc2)s1` [Example 47, 1-[5-tert-butyl-3-(3-oxopiperazine-1-carbonyl)thiophen-2-yl]-3-(4-chloro-phenyl)urea], the inhibition at 3 µM under setting [2] was in the range of 76 to 100%.
Regarding `CC(C)(C)c1cc(C(=O)N2CCS(=O)(=O)CC2)c(NC(=O)Nc2c[nH]c3ccccc23)s1` [Example 49, 1-[5-tert-butyl-3-(1,1-dioxo-1λ^6-thiomorpholine-4-carbonyl)thiophen-2-yl]-3-(1H-indol-3-yl)urea], under setting [2], the inhibition at 3 µM was 51 to 75%.
On to `CC(C)(C)c1cc(NC(=O)Nc2cccc3ccccc23)c(C(=O)N2CCNC(=O)CC2)s1` [Example 50, 1-[5-tert-butyl-2-(5-oxo-[1,4]diazepane-1-carbonyl)thiophen-3-yl]-3-naphthalen-1-ylurea], for which the inhibition at 3 µM under setting [2] lay within 76 to 100%.
As for `CC(C)(C)c1cc(NC(=O)Nc2cccc3ccccc23)c(C(=O)N2CCNS(=O)(=O)CC2)s1` [Example 51, 1-[5-tert-butyl-2-(1,1-dioxo-1λ^6-[1,2,5]thiadiazepane-5-carbonyl)thiophen-3-yl]-3-naphthalen-1-ylurea], under setting [2], the inhibition at 3 µM lay in the range of 76 to 100%.
For `CC(C)(C)c1cc(NC(=O)Nc2cccc3ccccc23)c(C(=O)N2CCNC(=O)C2)s1` [Example 52, 1-[5-tert-butyl-2-(3-oxopiperazine-1-carbonyl)thiophen-3-yl]-3-naphthalen-1-ylurea], the inhibition at 3 µM under setting [2] was 76 to 100%.
On the same count and under the same terms, the figure for `CC(C)(C)c1cc(C(=O)N2CCNC(=O)CC2)c(NC(=O)Nc2cccc(Cl)c2Cl)s1` [Example 53, 1-[5-tert-butyl-3-(5-oxo-[1,4]diazepane-1-carbonyl)thiophen-2-yl]-3-(2,3-dichlorophenyl)urea] is 76 to 100%; for `CC(C)(C)c1cc(C(=O)N2CCNC(=O)CC2)c(NC(=O)Nc2cccc(Cl)c2)s1` [Example 54, 1-[5-tert-butyl-3-(5-oxo-[1,4]diazepane-1-carbonyl)thiophen-2-yl]-3-(3-chlorophenyl)urea] it is 76 to 100%; for `CC(C)(C)c1cc(C(=O)N2CCNC(=O)CC2)c(NC(=O)Nc2ccc(C#N)c3ccccc23)s1` [Example 55, 1-[5-tert-butyl-3-(5-oxo-[1,4]diazepane-1-carbonyl)thiophen-2-yl]-3-(4-cyanonaphthyl)urea] it is 76 to 100%.
For the compound `CC(C)(C)c1cc(C(=O)N2CCNS(=O)(=O)CC2)c(NC(=O)Nc2ccc(C#N)c3ccccc23)s1` [Example 56, 1-[5-tert-butyl-3-(1,1-dioxo-1λ^6-[1,2,5]thiadiazepane-5-carbonyl)thiophen-2-yl]-3-(4-cyanonaphthalen-1-yl)urea], the inhibition at 3 µM under setting [2] lay in the range of 76 to 100%.
Regarding `CC(C)(C)c1cc(C(=O)N2CCNC(=O)C2)c(NC(=O)Nc2ccc(C#N)c3ccccc23)s1` [Example 57, 1-[5-tert-butyl-3-(3-oxopiperazine-1-carbonyl)thiophen-2-yl]-3-(4-cyano-naphthalen-1-yl)urea], under setting [2], the inhibition at 3 µM lay in the range of 76 to 100%.
`CC(C)(C)c1cc(C(=O)N2CCS(=O)(=O)CC2)c(NC(=O)Nc2cccc(Cl)c2Cl)s1` [Example 58, 1-[5-tert-butyl-3-(1,1-dioxo-1λ^6-thiomorpholine-4-carbonyl)thiophen-2-yl]-3-(2,3-dichlorophenyl)urea]: the inhibition at 3 µM under setting [2] is 76 to 100%.
As for `CC(C)(C)c1cc(C(=O)N2CCS(=O)(=O)CC2)c(NC(=O)Nc2cccc(Cl)c2)s1` [Example 59, 1-[5-tert-butyl-3-(1,1-dioxo-1λ^6-thiomorpholine-4-carbonyl)thiophen-2-yl]-3-(3-chlorophenyl)urea], under setting [2], the inhibition at 3 µM lay in the range of 76 to 100%.
Turning to `CC(C)(C)c1cc(C(=O)N2CCS(=O)(=O)CC2)c(NC(=O)Nc2ccc3c(c2)OCO3)s1` [Example 60, 1-Benzo[1,3]dioxol-5-yl-3-[5-tert-butyl-3-(1,1-dioxo-1λ^6-thiomorpholine-4-carbonyl)thiophen-2-yl]urea], under setting [2], the inhibition at 3 µM lay in the range of 76 to 100%.
Regarding `CC(C)(C)c1cc(C(=O)N2CCS(=O)(=O)CC2)c(NC(=O)Nc2ccc3c(c2)OC(F)(F)O3)s1` [Example 61, 1-[5-tert-butyl-3-(1,1-dioxo-1λ^6-thiomorpholine-4-carbonyl)thiophen-2-yl]-3-(2,2-difluorobenzo[1,3]dioxol-5-yl)urea], the inhibition at 3 µM under setting [2] was in the range of 76 to 100%.
Regarding `COc1ccc(NC(=O)Nc2sc(C(C)(C)C)cc2C(=O)N2CCS(=O)(=O)CC2)cc1Cl` [Example 62, 1-[5-tert-butyl-3-(1,1-dioxo-1λ^6-thiomorpholine-4-carbonyl)thiophen-2-yl]-3-(3-chloro-4-methoxyphenyl)urea], the inhibition at 3 µM under setting [2] lay in the range of 76 to 100%.
On the same count and under the same terms, the figure for `CC(C)(C)c1cc(C(=O)N2CCS(=O)(=O)CC2)c(NC(=O)Nc2ccc(Cl)c(Cl)c2)s1` [Example 63, 1-[5-tert-butyl-3-(1,1-dioxo-1λ^6-thiomorpholine-4-carbonyl)thiophen-2-yl]-3-(3,4-dichlorophenyl)urea] is 76 to 100%.
With `CC(C)(C)c1cc(C(=O)N2CCS(=O)(=O)CC2)c(NC(=O)Nc2ccc(C#N)c(Cl)c2)s1` [Example 64, 1-[5-tert-butyl-3-(1,1-dioxo-1λ^6-thiomorpholine-4-carbonyl)thiophen-2-yl]-3-(3-chloro-4-cyanophenyl)urea], the inhibition at 3 µM under setting [2] fell in the range of 51 to 75%.
As to `CC(C)(C)c1cc(C(=O)N2CCS(=O)(=O)CC2)c(NC(=O)Nc2ccc(C#N)c(C(F)(F)F)c2)s1` [Example 65, 1-[5-tert-butyl-3-(1,1-dioxo-1λ^6-thiomorpholine-4-carbonyl)thiophen-2-yl]-3-(4-cyano-3-trifluoromethylphenyl)urea], the inhibition at 3 µM under setting [2] was in the range of 26 to 50%.

The values above are taken from patent US7741479B2, “Urea inhibitors of MAP kinases” (Locus Pharmaceuticals, Inc., priority 2004, dated 2010).
